Measurements: patent publication US20040087653A1, “Methods for the treatment of respiratory diseases and conditions with a selective iNOS inhibitor and a PDE inhibitor and compositions therefor” (priority 2002, published 2004)
pIC50: −log10 of the molar value. Where a name gives a salt, the structure may show the parent alone. Read-outs that look alike come from different tables or passages of the source.

Assays:
[1] = test system: nitrite production in human cartilage explants; experiment: Human cartilage explant assay (IL-1 induced nitrite production); type: cell-based; conditions: inhibition of nitrite production, IL-1 stimulated explants
Experimental: Bone pieces are rinsed twice with Dulbecco's Phosphate Buffered Saline (GibcoBRL) and once with Dulbecco's Modified Eagles Medium (GibcoBRL) and placed into a petri dish with phenol red free Minimum Essential Medium (MEM) (GibcoBRL). Cartilage was cut into small explants of approximately 15-45 mg in weight and one or two explants per well are placed into either 96 or 48 well culture plates with 200-500 μL of culture media per well. The culture media was either a custom modification of Minimum Essential Medium(Eagle) with Earle's salts (GibcoBRL) prepared without L-Arginine, without L-Glutamine and without phenol red or a custom modification of serumless Neuman and Tytell (GibcoBRL) medium prepared without L-arginine, without insulin, without ascorbic acid, without L-glutamine and without phenol red. Both are supplemented before use with 100 μM L-Arginine (Sigma), 2 mM L-glutamine, 1× HL-1 supplement (BioWhittaker), […] ascorbic acid (Sigma) and 150 pg/ml recombinant human IL-1[…] (RD Systems) to induce nitric oxide synthase. Compounds are then added in 10 μL aliquots and the explants incubated at 37° C. with 5% CO2 for 18-24 hours. The day old supernatant is then discarded and replaced with fresh culture media containing recombinant human IL-1β and compound and incubated for another 20-24 hours. […] All samples are done in quadruplicate. Unstimulated controls are cultured in media in the absence of recombinant human IL-1 □. IC50 values (Table II) are determined from plotting the percent inhibition of nitrite production at six different concentrations of inhibitor.

i-NOS = i-NOS (Homo sapiens, UniProt P35228); experiment: i-NOS inhibition, comparison with NIL amides
i-NOS, sequence (P35228 whole entry): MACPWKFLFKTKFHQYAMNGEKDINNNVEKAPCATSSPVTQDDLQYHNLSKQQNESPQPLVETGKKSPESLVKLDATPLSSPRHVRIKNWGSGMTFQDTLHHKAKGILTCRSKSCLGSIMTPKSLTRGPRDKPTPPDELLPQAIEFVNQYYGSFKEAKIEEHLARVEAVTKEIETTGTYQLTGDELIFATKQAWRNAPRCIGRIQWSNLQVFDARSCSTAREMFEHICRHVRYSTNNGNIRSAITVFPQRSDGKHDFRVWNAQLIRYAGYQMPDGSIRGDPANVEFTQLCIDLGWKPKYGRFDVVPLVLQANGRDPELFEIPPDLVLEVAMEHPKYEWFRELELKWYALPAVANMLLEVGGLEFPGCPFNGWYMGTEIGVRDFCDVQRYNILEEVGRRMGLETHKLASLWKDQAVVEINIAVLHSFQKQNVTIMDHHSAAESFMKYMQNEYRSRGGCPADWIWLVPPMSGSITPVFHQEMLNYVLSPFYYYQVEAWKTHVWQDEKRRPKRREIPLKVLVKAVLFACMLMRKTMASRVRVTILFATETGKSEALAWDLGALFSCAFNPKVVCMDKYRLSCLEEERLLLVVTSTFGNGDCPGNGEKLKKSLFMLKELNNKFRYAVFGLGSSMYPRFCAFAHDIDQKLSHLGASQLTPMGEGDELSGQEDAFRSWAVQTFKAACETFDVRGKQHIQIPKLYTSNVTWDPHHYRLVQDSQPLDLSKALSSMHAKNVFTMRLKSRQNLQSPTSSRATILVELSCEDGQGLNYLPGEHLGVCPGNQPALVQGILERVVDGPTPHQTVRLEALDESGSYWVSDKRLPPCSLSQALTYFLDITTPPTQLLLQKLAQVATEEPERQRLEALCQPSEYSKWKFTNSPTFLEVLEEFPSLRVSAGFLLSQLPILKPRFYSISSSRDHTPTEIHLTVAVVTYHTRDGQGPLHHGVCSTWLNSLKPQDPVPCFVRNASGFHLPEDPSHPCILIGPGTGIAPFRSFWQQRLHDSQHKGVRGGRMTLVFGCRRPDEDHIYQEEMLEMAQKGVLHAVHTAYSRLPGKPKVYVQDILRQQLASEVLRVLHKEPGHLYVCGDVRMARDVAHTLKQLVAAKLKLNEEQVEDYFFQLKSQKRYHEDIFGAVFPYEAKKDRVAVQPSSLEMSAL

[2] = test system: LPS-induced increase in plasma nitrite/nitrate levels; experiment: In vivo assay: plasma nitrite/nitrate in endotoxin-treated rats; conditions: oral administration, plasma nitrite/nitrate 5 hours post-treatment
Experimental: Plasma nitrite/nitrate levels can be determined 5 hours post-treatment.

exhaled NO = conditions: high doses; cited from earlier work
[3] = test system: iNOS protein expression in human primary airway epithelial cells; experiment: Western blotting of iNOS from cultured epithelial cells; type: cell-based; conditions: cytokine-stimulated cells, various concentrations
Experimental: Western blotting of iNOS from cultured epithelial cells: Following incubation with the cytokine mixture alone or with various concentrations of L-NIL, epithelial cells were lysed in 50 mM Tris/HCl, pH 7.4, containing 0.25 mM ethylene diaminotetraacetic acid, 0.5 mM phenylmethylsulfonyl fluoride, 5 μg/ml antipain, 5 μg/ml leupeptin and 5 μg/ml benzaminidine. The protein concentration was determined using the BioRad protein assay kit according to the manufacturer's instructions. Cell proteins were solubilized in sodium dodecyl sulfate polyacrylamide gel electrophoresis sample buffer ([…] Tris/HCl, pH 6.8, containing 10% v/v glycerol, 1% w/v SDS, 1% w/v β-mercaptoethanol, and 0.01% w/v bromophenol blue). The proteins (15 μg per lane) were resolved by electrophoresis in 3-8% (w/v) Tris-acetate SDS-polyacrylamide gels and transferred to Hybond-Enhanced Chemi-luminescence (ECL) nitro-cellulose membranes. Equal protein loading was determined by staining the blot with 0.1% (w/v) Ponceau S in 5% (v/v) acetic acid. The nitro-cellulose was then blocked overnight at 4° C. in 0.5M Tris-HCl,pH 7.4, containing 3% (w/v) normal goat serum, 1% (w/v) bovine serum albumin and 0.05% (v/v) Tween-20. […]
Media was harvested and measured for nitrite content (FIG. 1). […]

[4] = test system: human primary airway epithelial cells; experiment: Nitrite in media of cytokine-stimulated human primary airway epithelial cells; type: cell-based; conditions: cells cultured 24 h with 50 ng/ml IL-1β, TNF-α and IFN-γ; read-out: IC50, inhibition of the increase in nitrite in the media
Experimental: Human primary airway epithelial cell cultures: Human primary airway epithelial cells were cultured as described previously (see Donnelly,L. E. and Barnes,P. J. Am J Respir Cell Mol.Biol 24:295-303 (2000)), and the amount of nitrite, the stable oxidation product of NO, in the cell culture media was measured using a modification of the spectrofluorometric method of Misko et al., Anal. Biochem. 4:11-16 (1993).
The protein was evenly distributed throughout the cytoplasm in basal cells but clearly located beneath the cilia in the columnar, ciliated cells. Treatment of airway epithelial cells with 50 ng/ml of IL-1β, TNF-α and IFN-γ (cytomix) for 24 h caused an induction of iNOS protein and an increase in the accumulation of nitrite in cell culture media from 2.20±0.2 μM in the absence of cytomix, to 3.5±0.4 μM in the presence of cytomix.
Media was harvested and measured for nitrite content (FIG. 1). Cellular proteins were resolved on 3-8% tris-acetate polyacrylamide gels and immunoblotted for iNOS protein (FIG. 2).

PDE V = PDE V (Homo sapiens, UniProt O76074); conditions: printed only as numerator of 8/0.0008; cited from earlier work
PDE IV [5] = test system: T1, PDE IV; conditions: Hatzelmann et al. 2001; cited from earlier work
T1 construct: other: Hatzelmann et al. 2001

PDE IV [6] = experiment: PDE IV inhibition (Hatzelmann et al.)
Experimental: PDE inhibition is then determined by the presence or absence of substrate degradation products. […] The relative ability of an inhibitory compound to slow or prevent the degradation of tritiated cyclic nucleotides is one test that is indicative of how well the compound in question selects one or more of each isoform to inhibit.
In practice, the in vitro selectivity of a PDE IV inhibitor may vary depending upon the condition under which the test is performed and on the inhibitors being tested. However, for the purposes of this specification, the selectivity of a PDE IV inhibitor can be measured as a ratio of the in vitro IC50 value for inhibition of any other isoform of the phosphodiesterase enzyme (Z) other than PDE IV, divided by the IC50 value for inhibition of PDE IV (PDE Z IC50/PDE IV IC50), where Z identifies any PDE other than PDE IV.

PDE I = conditions: Hatzelmann et al. 2001; cited from earlier work
[7] = Rattus norvegicus, read-out: ED50

Structure (SMILES)	pIC50 ([1]; Homo sapiens)	ED50 [2, 7] [mg/kg]	also measured
CC(=N)NCC(F)=CCC[C@H](N)C(=O)O (mixture of isomers) [Example B, (2S,5E/Z)-2-amino-6-fluoro-7-[(1-iminoethyl)amino]-5-heptenoic acid, dihydrochloride]	6.70		
CC(=N)NCCCC[C@H](N)C(=O)Nc1nnn[nH]1 [Example 1, 2S-amino-6-[(1-iminoethyl)amino]-N-(1H-tetrazol-5-yl)hexanamide, hydrate, dihydrochloride]			selectivity compared with NIL amide or NIL dimethylamide (i-NOS): more selective
CC(=N)NC/C(F)=C\CC[C@H](N)C(=O)O [Example A, (2S,5E)-2-amino-6-fluoro-7-[(1-iminoethyl)amino]-5-heptenoic acid, dihydrochloride]	7.00	< 0.1	ED50 ([2]; dihydrochloride): <0.1 mg/kg
CC(=N)NC/C(F)=C/CC[C@H](N)C(=O)O [Example D, (2S,5Z)-2-amino-6-fluoro-7-[(1-iminoethyl)amino]-5-heptenoic acid, trihydrochloride, dihydrate]	5.60	> 10	
CC(=NO)NC/C(F)=C\CC[C@H](N)C(=O)O [Example G, (2S,5E)-2-amino-6-fluoro-7-[(1-hydroximinoethyl)amino]-5-heptenoic acid]		< 0.1	melting point: 198 to 200 °C
CC(=N)NC/C(F)=C\CC[C@H](N)C(=O)Nc1nnn[nH]1 [Example H, (2S,5E)-2-amino-6-fluoro-7-[(1-iminoethyl)amino]-N-(1H-tetrazol-5-yl) 5-heptenamide, dihydrochloride]		< 0.3	
CC(=N)NC/C(F)=C\CC[C@](C)(N)C(=O)O.Cl.Cl [Example HH, (2S,5E)-2-amino-2-methyl-6-fluoro-7-[(1-iminoethyl)amino]-5-heptenoic acid, dihydrochloride]	6.40	0.4	
COC[C@](N)(CSCCNC(C)=N)C(=O)O [Example J, 2-[[[2-[(1-Iminoethyl)amino]ethyl]thio]methyl]-O-methyl-D-serine, dihydrochloride]			pIC50 [1]: 5.09
CC(=N)NC/C=C\CC[C@](C)(N)C(=O)O.Cl.Cl [Example LL, (2S,5Z)-2-amino-2-methyl-7-[(1-iminoethyl)amino]-5-heptenoic acid, dihydrochloride]	6.10	0.3	
N=C1CCCC[C@H](CCCC[C@@H](N)C(=O)O)N1 [Example V, (α,2S)-.α-aminohexahydro-7-imino-1H-azepine-2-hexanoic acid, trihydrate hydrochloride]	> 5.00	< 3	
N=C1CCCC[C@@H](CCCC[C@H](N)C(=O)O)N1 [Example W, (αS,2R)-α-aminohexahydro-7-imino-1H-azepine-2-hexanoic acid, trihydrate hydrochloride]	< 4.52		
N=C1CCCC[C@H](CCCC[C@H](N)C(=O)O)N1 [Example X, (αS,2S)-α-aminohexahydro-7-imino-1H-azepine-2-hexanoic acid, trihydrate hydrochloride]			pIC50 [1]: > 5.00
Cl.N=C1CCCC[C@H](CCCC[C@@H](N)C(=O)O)N1.O.O.O [Example Y, (αR,2S)-α-aminohexahydro-7-imino-1H-azepine-2-hexanoic acid, trihydrate hydrochloride]		< 3	
N=C1CCCC[C@H](CCCC[C@H](N)C(=O)O)N1 [Example Z, (αS,2S)-α-aminohexahydro-7-imino-1H-azepine-2-hexanoic acid, trihydrate hydrochloride]	> 5.00		
COC(=O)[C@@H](N)CCCNC(=N)N[N+](=O)[O-] [L-NAME]			inhibition of exhaled NO (exhaled NO): approximately 70%
CC(=N)NCCCC[C@H](N)C(=O)O [L-NIL]			effect on iNOS expression as detected by immunoblotting [3]: did not affect iNOS expression; pIC50 [4]: ~5.24
N=C(N)NN [amino-guanidine]			inhibition of exhaled NO (exhaled NO): approximately 70%
O=C(Nc1c(Cl)cncc1Cl)c1ccc(OC(F)F)c(OCC2CC2)c1 [roflumilast]			pIC50 (PDE V): 5.10; pIC50 (PDE IV [5]): 9.10; selectivity for PDE IV as compared with PDE I (PDE IV [6]; PDE I IC50/PDE IV IC50): at least 12,500; selectivity for PDE IV as compared with PDE V (PDE IV [6]; PDE V IC50/PDE IV IC50): at least 10,000; pIC50 (PDE I): < 5.00
